Test results: US20130079299A1, “Arthritis Therapeutic Agent” (GLUCAN CORPORATION, priority 2010, published 2013)

Experiments:
[1] = tested on: rheumatoid arthritis (RA) DBA mouse caused by collagen; assay: Collagen-induced rheumatoid arthritis (RA) mouse model, histomorphometry of thymus, spleen and knee joint; assay type: in vivo
Text: Bone tissue was amputated from around the thymus and spleen and fixed in 10% neutral formalin, and was then dehydrated and paraffin embedded to provide a 3-4 μm longitudinal section, then dyed with Hematoxylineosin and observed under an optical microscope. In addition, the knee joint of both the rear legs were removed from the around connective tissue and fixed in 10% neutral formalin, and then it was decalcificated using a decalcification solution containing 24.4% of formic acid and 0.5 N of sodium hydroxide for 5 days. […] Then the section was dyed with Hematoxylineosin and observed under the optical microscope. […] DMI, Korea) in the view of a 40×-magnification microscope, and the thickness of articular cartilage of the femur and tibia of the knee joint, the proteoglycan loss, and erosion were evaluated by an automated image analyzer (DMI-300 Image Processing; DMI, Korea) in the view of a 100×-magnification microscope according to the known method [Dudler et al., 2000; van Holten et al., 20 04; Kim et al., 2007]. The proteoglycan loss was evaluated into 3 levels for stainability of Safranin O dye specialized for proteoglycans according to the known method [Williams et al., 1992; Dudler et al., 2000; van Holten et al., 2004]. In other words, 0 indicates no proteoglycan loss, and 3 indicates no stainability because of complete deflection. […] The RA(Rhematoid Arthritis)-induced mouse model using collagen is one of the animal models that are widely used for evaluating the efficacy on RA for various materials [Liu et al., 2008; Miyake et al., 2008; Pa nayi et al., 2008], and RA was caused by the auto-immunity.

[2] = tested on: Sprague-Dawley rats caused to have osteoarthritis; assay: Osteoarthritis caused by anterior cruciate ligament transection and partial medial meniscectomy, 84 days administration
Description: Sprague-Dawley rats (male, 6 week-old, SLC., JAPAN) [ANNEX I-III] were prepared as laboratory animals.
Six experimental groups were formed, with 8 Sprague-Dawley Rats in each group. […] In addition, a negative control group was an OA control group which was treated with nothing after causing osteoarthritis, and a positive control group was administered 2 mg/kg of diclofenac sodium after causing osteoarthritis.
The medium for the administration was sterilized distilled water at 5 ml/kg.
For the positive control, 2 mg/kg of the diclofenac sodium was transdermally administered at 1 ml/kg of normal saline as a medium every day for 84 days.
Each experimental rat was anesthetized with Zoletile 50 (Vir bac Lab., France), and the left articular capsule was exposed and underwent anterior cruciate ligament transaction and partial medial meniscectomy to cause osteoarthritis. For the sham surgery group, the articular capsule was excised to observe the medial meniscus inside the organ and closed without surgical removal.
Weight change and knee joint thickness change were monitored and measured once a week for 84 days from administration, and on the final day, the maximum stretching angle of the knee joint and the knee joint thickness after exposing the capsule were measured under Safranin O dye, respectively. The Makin scores of the femur and tibia and the cartilage thickness were then histomorphometrically measured, and the articular cartilages of the femur and tibia were each evaluated for BrdU immunoreactivity.

[3] = Diclofenac sodium treated group (dose not given)
[4] = Diclofenac sodium treated group (dose not given), average ± SD of 8 animals
[5] = Diclofenac sodium treated group (dose not given), ± SD of 16 joints
[6] = diclofenac sodium group (dose not given)
[7] = diclofenac sodium 2 mg/kg transdermal daily 84 days

For O=C(O)Cc1ccccc1Nc1c(Cl)cccc1Cl [Diclofenac sodium, diclofenac sodium], the “Cortex thickness (thymus)” value [1, 3] was 1.333 ± 0.705 mm/lobules, the “Total thickness (thymus)” value [1, 3] was 1.941 ± 0.916 mm/lobules and the “Entire thickness (spleen)” value [1, 4] was 4.464 ± 0.58 mm/central part. The “Number of white medulla (spleen)” value [1, 4] was 10.500 ± 2.121 /1 mm^2, the “Thickness of white medulla (spleen)” value [1, 4] was 0.986 ± 0.304 mm/white medulla and the “Erosion level (Max = 3), femur articular cartilage” value [1, 5] was 1.000 ± 0.000. For the same molecule, the “Erosion level (Max = 4), tibia articular cartilage” value [1, 5] was 0.500 ± 1.000, the “Safranin level (Max = 3), femur articular cartilage” value [1, 5] was 0.500 ± 0.577 and the “Safranin level (Max = 3), tibia articular cartilage” value [1, 5] was 1.500 ± 0.577. The “Thickness (mm) of tibia articular cartilage” value [1, 5] was 0.169 ± 0.024 mm, the “Thickness of the femur articular cartilage” value [1, 5] was 0.470 ± 0.674 mm and the “collagen-induced RA opinion (proteoglycan loss, erosion, cartilage thickness of knee joint)” value ([1]; all Polycan groups except 21.25 mg/kg in the tibia, diclofenac sodium group) was “remarkably suppressed”. For the same molecule, the “Safranin O score of femur articular cartilage, change compared to the RA control group” value [1, 6] was −63.64%, the “Safranin O score of the tibia articular cartilage, change compared to the RA control group” value [1, 6] was −29.41% and the “diameter of the spleen white medulla, change compared to the RA control group” value [1, 6] was −8.14%. The “entire spleen thickness, change compared to the RA control group” value [1, 6] was 17.49%, the “entire thymus thickness, change compared to the RA control group” value [1, 6] was −2.80% and the “erosion score of the femur articular cartilage, change compared to the RA control group” value [1, 6] was −36.00%. For the same molecule, the “erosion score of the tibia articular cartilage, change compared to the RA control group” value [1, 6] was −75.00%, the “number of spleen white medulla, change compared to the RA control group” value [1, 6] was 5.00% and the “thickness of the femur joint cartilage, change compared to the RA control group” value [1, 6] was 333.70%. The “thickness of the thymus cortex, change compared to the RA control group” value [1, 6] was 18.83%, the “thickness of the tibia articular cartilage, change compared to the RA control group” value [1, 6] was 38.75% and the “BrdU immunoreactive cell number in the femur articular cartilage, change compared to the OA control group” value [2, 7] was 9.52%. The “BrdU immunoreactive cell number in the tibia articular cartilage, change compared to the OA control group” value [2, 7] was 1.56%, the “Mankin score of the femur, change compared to the OA control group” value [2, 7] was −27.85% and the “Mankin score of the tibia, change compared to the OA control group” value [2, 7] was −20.59%. For the same molecule, the “maximum stretching angle of knee joint, change compared to the OA control group” value [2, 7] was −18.18%, the “thickness of the knee joint after exposing the joint capsule, change compared to the OA control group” value [2, 7] was −0.99% and the “thickness of the knee joint in the final autopsy, change compared to the OA control group” value [2, 7] was −5.79%. For the same molecule, the “articular cartilage thickness of the femur, change compared to the OA control group” value ([2]; diclofenac sodium 2 mg/kg transdermal daily 84 days, b105) was 35.11% and the “thickness of the knee joint compared to osteoarthritis-caused control group over time” value ([2]; each of the three-dose Polycan and diclofenac sodium groups, from 21 days after administration, p<0.01 or p<0.05) was “significantly decreased”.
